Experimental data from US20220202783A1, “Use Of ADAM9 Inhibitor As Immunomodulator” (China Medical University, priority 2019, published 2022).

Experiments:
[1] = cytotoxicity assay in 293 cells; type: cell-based; design: key to effect of inhibiting tumor cell growth: “+” represents that the compound has the effect of inhibiting tumor cell growth; conditions: 293
[2] = cytotoxicity assay in HNOF cells; type: cell-based; design: key to effect of inhibiting tumor cell growth: “+” represents that the compound has the effect of inhibiting tumor cell growth; conditions: human, HNOF cells
HNOF = assay: cytotoxicity assay in HNOF cells; type: cell-based; design: key to effect of inhibiting tumor cell growth: “+” represents that the compound has the effect of inhibiting tumor cell growth; conditions: HNOF
lung cancer cells (A549) = assay: cytotoxicity assay in A549 cells; type: cell-based; design: key to effect of inhibiting tumor cell growth: “+” represents that the compound has the effect of inhibiting tumor cell growth; conditions: for IC50: Homo sapiens
Procedure, shortened: (§1)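 Cytotoxicity measured as IC50 in the listed cell types; no further conditions described.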

[3] = test system: lung cancer cells (H1299); assay: cytotoxicity assay in H1299 cells; type: cell-based; design: key to effect of inhibiting tumor cell growth: “+” represents that the compound has the effect of inhibiting tumor cell growth; conditions: for effect of inhibiting tumor cell growth: H1299; for IC50: Homo sapiens, NCI-H1299
Procedure, shortened: as §1

lung cancer cells (TC1) = assay: cytotoxicity assay in TC1 cells; type: cell-based; design: key to effect of inhibiting tumor cell growth: “+” represents that the compound has the effect of inhibiting tumor cell growth; conditions: for IC50: TC-1
Procedure, shortened: as §1

[4] = test system: lung cancer cells (Bm7brmx2); assay: cytotoxicity assay in Bm7brmx2 cells; type: cell-based; design: key to effect of inhibiting tumor cell growth: “+” represents that the compound has the effect of inhibiting tumor cell growth
Procedure, shortened: as §1

[5] = test system: lung cancer cells (Bm7brmx2-2nd); assay: cytotoxicity assay in Bm7brmx2-2nd cells; type: cell-based; design: key to effect of inhibiting tumor cell growth: “+” represents that the compound has the effect of inhibiting tumor cell growth
Procedure, shortened: as §1

[6] = test system: breast cancer cells (231-brm); assay: cytotoxicity assay in 231-brm cells; type: cell-based; design: key to effect of inhibiting tumor cell growth: “+” represents that the compound has the effect of inhibiting tumor cell growth
PE10 WBC = assay: cytotoxicity assay in PE10 WBC; type: cell-based; design: key to effect of inhibiting tumor cell growth: “+” represents that the compound has the effect of inhibiting tumor cell growth
Bm7 lung cancer cells [7] = assay: cytotoxicity assay, FIG. 1B and Table 2 summary; type: cell-based
Experimental: (§2) Please refer to FIG. 1A, FIG. 1B and Table 2, which show the analysis results of the compound of Formula (I) inhibiting ADAM9 activity. In FIG. 1A, Bm7 lung cancer cells were treated with the derivatives of the compound 6X-0310, and then cultured under anchorage-free culture condition. The expressions of ADAM9 and CDCP1 in Bm7 lung cancer cells were detected by Western blot, in which EF1α is an internal control, and mock represents Bm7 lung cancer cells without treatment. […] In the experiment, the compounds of Formula (I) of Example 1 to Example 32 were further performed cytotoxicity assay to measure the IC50 value of the compounds of Formula (I) of the present disclosure in lung cancer cell lines.

[8] = test system: CDCP1 in Bm7 lung cancer cells; assay: Western blot of ADAM9 and CDCP1 expression in Bm7 cells; type: cell-based; conditions: anchorage-free culture
Experimental: as §2

ADAM17 = ADAM17 (Homo sapiens, UniProt P78536); assay: inhibition of ADAM17 activity; type: biochemical; conditions: different concentrations
Bm7 lung cancer cells [9] = assay: migration inhibition assay; type: cell-based; conditions: 25 μM, control Bm7 lung cancer cells (shGFP)
Experimental: To further evaluate the specificity of the compound SW1 and the compound SW2, control Bm7 lung cancer cells (treated with shGFP) and ADAM9 knockout (KO) Bm7 lung cancer cells (treated with shADAM9) were treated with 25 μM of the compound SW1 or the compound SW2, respectively, and then performed a migration inhibition assay.

[10] = test system: lung cancer brain metastatic cell line-Bm7brmx2; assay: anoikis in anchorage-free culture, Bm7brmx2; type: cell-based; conditions: read-out: IC50 value for anoikis (anchorage-free induced apoptosis)
Experimental: (§3) To ensure the compound SW1 and the compound SW2 in blocking anoikis-resistance of cancer cells, the IC50 value (unit is μM) of the compound SW1 and the compound SW2 for anoikis (anchorage-free induced apoptosis) in lung cancer brain metastatic cell line-Bm7brmx2, breast cancer brain metastatic cell line-MDA-231 brm and leukocytes in anchorage-free culture conditions were determined.

[11] = test system: breast cancer brain metastatic cell line-MDA-231 brm; assay: anoikis in anchorage-free culture, MDA-231brm; type: cell-based; conditions: read-out: IC50 value for anoikis (anchorage-free induced apoptosis)
Experimental: as §3

leukocytes = assay: anoikis in anchorage-free culture, leukocytes; type: cell-based; conditions: Leukocyte, read-out: IC50 value for anoikis (anchorage-free induced apoptosis)
Experimental: as §3

TC1-WT lung cancer cells [12] = assay: colony-forming assay, TC1; type: cell-based; conditions: 10 μM
Experimental: To further test the planting efficiency of tumor cells treated with the compound SW1 and the compound SW2, in the experiment, control Bm7 lung cancer cells (treated with shGFP) and ADAM9 KO Bm7 lung cancer cells (treated with shADAM9) were treated with 20 μM of the compound SW1 or the compound SW2 respectively, and TC1-wild-type (WT) lung cancer cells and TC1-ADAM9 KO lung cancer cells were treated with 10 μM of the compound SW1 or the compound SW2 respectively. Then colony-forming assay was used to confirm the planting efficiency of each test group. Please refer to FIGS. 2D and 2E, wherein mock represents the tumor cell lines without treatment of the compound SW1 or the compound SW2. Representative images of colony-forming assay are shown at the bottom, and data are means±SD of 6 separate wells.

TC1-WT lung cancer cells [13] = assay: Annexin V and PI staining for cell apoptosis; type: cell-based; conditions: 24 hours, compared with TC1-ADAM9 KO lung cancer cells
Experimental: In the experiment, TC1-WT lung cancer cells and TC1-ADAM9 KO lung cancer cells were further treated with the compound SW1 or the compound SW2 for 24 hours, and then stained with Annexin V and PI to detect cell apoptosis. Please refer to FIG. 2F, where the percentage of Annexin V+ cells (apoptotic cells) is the statistical result from three independent experiments, with mean±SD.

Panc-1 = assay: cytotoxicity on pancreatic cancer cells, Panc-1; type: cell-based; conditions: Homo sapiens
Experimental: (§4) In addition, the IC50 values (unit is μM) of the compound SW1 and the compound SW2 on pancreatic cancer cells were measured in the experiment.

PC-080 = assay: cytotoxicity on pancreatic cancer cells, PC-080; type: cell-based; conditions: Pancreatic cancer cell
Experimental: as §4

Pan18-GFP-Luc = assay: cytotoxicity on pancreatic cancer cells, Pan18-GFP-Luc; type: cell-based; conditions: Pancreatic cancer cell
Experimental: as §4

Su86-86-GFP-Luc = assay: cytotoxicity on pancreatic cancer cells, Su86-86-GFP-Luc; type: cell-based; conditions: Pancreatic cancer cell
Experimental: as §4

Chain of ADAM17 (P78536 215-824, species assumed): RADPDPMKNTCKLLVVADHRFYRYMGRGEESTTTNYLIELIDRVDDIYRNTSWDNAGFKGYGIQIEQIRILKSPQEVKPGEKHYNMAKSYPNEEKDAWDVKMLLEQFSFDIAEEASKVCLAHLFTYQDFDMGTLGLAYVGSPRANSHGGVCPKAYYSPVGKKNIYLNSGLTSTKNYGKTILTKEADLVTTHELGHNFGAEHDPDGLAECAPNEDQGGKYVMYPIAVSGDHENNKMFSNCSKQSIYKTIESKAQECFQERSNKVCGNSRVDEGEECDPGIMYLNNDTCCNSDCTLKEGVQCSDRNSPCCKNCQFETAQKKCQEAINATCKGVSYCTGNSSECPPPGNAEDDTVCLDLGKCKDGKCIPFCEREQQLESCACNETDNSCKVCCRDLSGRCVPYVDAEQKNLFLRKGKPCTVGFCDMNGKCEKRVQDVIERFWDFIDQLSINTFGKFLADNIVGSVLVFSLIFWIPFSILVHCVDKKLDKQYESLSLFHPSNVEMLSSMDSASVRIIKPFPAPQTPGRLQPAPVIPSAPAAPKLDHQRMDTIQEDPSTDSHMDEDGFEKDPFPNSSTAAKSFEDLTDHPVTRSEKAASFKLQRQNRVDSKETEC

| inhibition of ADAM17 activity (ADAM17) | SMILES | effect of inhibiting tumor cell growth [1] | IC50 [2] [µM] | effect of inhibiting tumor cell growth (HNOF) | effect of inhibiting tumor cell growth (lung cancer cells (A549)) | IC50 (lung cancer cells (A549)) [µM] | effect of inhibiting tumor cell growth [3] | IC50 [3] [µM] | effect of inhibiting tumor cell growth (lung cancer cells (TC1)) | IC50 (lung cancer cells (TC1)) [µM] | IC50 [4] [µM] | effect of inhibiting tumor cell growth [4] | IC50 [5] [µM] | effect of inhibiting tumor cell growth [5] | IC50 [6] [µM] | effect of inhibiting tumor cell growth [6] | IC50 (PE10 WBC) [µM] | effect of inhibiting tumor cell growth (PE10 WBC) | tumor cell cytotoxicity compared with the core structure compound 6X-0310 (Bm7 lung cancer cells [7]) | expression of CDCP1 [8] | also measured |
| --- | --- | --- | --- | --- | --- | --- | --- | --- | --- | --- | --- | --- | --- | --- | --- | --- | --- | --- | --- | --- | --- |
| no inhibitory effects | O=C1c2ccccc2C(=O)N1CCc1csc(Nc2nc(CCN3C(=O)c4ccccc4C3=O)cs2)n1 [SW1] | + | 97.8 | + | + | 434 | + | 76.9 | + | 80.4 | 71.6 | + | 43.5 | + | 4.5 | + | 14500 | + | stronger tumor cell cytotoxicity | reduce the expression of CDCP1 | migration ability (Bm7 lung cancer cells [9]): significantly reduce the migration ability; IC50 [10]: 20 µM; IC50 [11]: 4.5 µM; IC50 (leukocytes): > 200 µM; planting efficiency, colony-forming assay (TC1-WT lung cancer cells [12]): greatly reduce the planting efficiency; cell apoptosis (Annexin V+ cells) (TC1-WT lung cancer cells [13]): induce cell apoptosis; IC50 (Panc-1): 424 µM; IC50 (PC-080): 446 µM; IC50 (Pan18-GFP-Luc): 0.3 µM; IC50 (Su86-86-GFP-Luc): 59.2 µM |
| no inhibitory effects | O=C(Nc1nc(CCN2C(=O)c3ccccc3C2=O)cs1)c1cc2ccccc2s1 [SW2] | + | 61.9 | + | + | 458 | + | 32 | + | 64.2 | 52.7 | + | 45.1 | + | 7.55 | + | 76.5 | + | stronger tumor cell cytotoxicity | reduce the expression of CDCP1 | migration ability (Bm7 lung cancer cells [9]): significantly reduce the migration ability; IC50 [10]: 27 µM; IC50 [11]: 7.5 µM; IC50 (leukocytes): 76 µM; planting efficiency, colony-forming assay (TC1-WT lung cancer cells [12]): greatly reduce the planting efficiency; cell apoptosis (Annexin V+ cells) (TC1-WT lung cancer cells [13]): induce cell apoptosis; IC50 (Panc-1): 34.2 µM; IC50 (PC-080): 89.6 µM; IC50 (Pan18-GFP-Luc): 112 µM; IC50 (Su86-86-GFP-Luc): 66.8 µM |
